Experimental data taken from the supplement of paper PMC10307832.

How the values were obtained:
Assay in all cases: relative viability (nuclei count vs DMSO), 5 days (fraction); higher = more cells survive
[1] = compound: CS(=O)(=O)c1ccc(-c2cnc(N)c(C(=O)Nc3ccccc3)n2)cc1 [VE-821] + C[C@@H](Oc1cc(-c2cnn(C3CCNCC3)c2)cnc1N)c1c(Cl)ccc(F)c1Cl [Crizotinib] (partner 1 µM)
Procedure, shortened: (§1)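 One day after seeding in 1536-well plates, lung cancer cell lines were dosed by pin tool. Dosing was either single-drug or a fixed anchor-drug dose plus five library-drug doses (not always all listed) in √10 steps. After 5 days, nuclei were stained in one fix-and-stain step and counted on 4× images, and relative viability is the nuclei count of treated wells over that of vehicle wells, given as the median of duplicate plates.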

[2] = compound: N#CC[C@H](C1CCCC1)n1cc(-c2ncnc3[nH]ccc23)cn1 [Ruxolitinib] + O=C(c1cc(Cc2n[nH]c(=O)c3ccccc23)ccc1F)N1CCN(C(=O)C2CC2)CC1 [Olaparib] (partner 8 µM)
Procedure, shortened: as §1

[3] = compound: N#CC[C@H](C1CCCC1)n1cc(-c2ncnc3[nH]ccc23)cn1 [Ruxolitinib] + CC1(C)CCC(c2ccc(Cl)cc2)=C(CN2CCN(c3ccc(C(=O)NS(=O)(=O)c4ccc(N[C@H](CCN5CCOCC5)CSc5ccccc5)c(S(=O)(=O)C(F)(F)F)c4)cc3)CC2)C1 [Navitoclax] (partner 0.5 µM)
Procedure, shortened: as §1

[4] = compound: CS(=O)(=O)c1ccc(-c2cnc(N)c(C(=O)Nc3ccccc3)n2)cc1 [VE-821] + O=C(CCCCCCC(=O)Nc1ccccc1)NO [Vorinostat] (partner 1 µM)
Procedure, shortened: as §1

Cell Line	relative viability ([1]; first compound 0.08 µM)	relative viability ([1]; first compound 0.253 µM)	relative viability ([1]; first compound 0.8 µM)	relative viability ([1]; first compound 2.53 µM)	relative viability ([1]; first compound 8 µM)	relative viability ([2]; first compound 0.08 µM)	relative viability ([2]; first compound 0.253 µM)	relative viability ([2]; first compound 0.8 µM)	relative viability ([2]; first compound 2.53 µM)	relative viability ([2]; first compound 8 µM)	relative viability ([3]; first compound 0.08 µM)	relative viability ([3]; first compound 0.253 µM)	relative viability ([3]; first compound 0.8 µM)	relative viability ([3]; first compound 2.53 µM)	relative viability ([3]; first compound 8 µM)	relative viability ([4]; first compound 0.08 µM)	relative viability ([4]; first compound 0.253 µM)	relative viability ([4]; first compound 0.8 µM)	relative viability ([4]; first compound 2.53 µM)	relative viability ([4]; first compound 8 µM)
NCI-H2347	0.723	0.794	0.684	0.983	0.713	0.527	0.627	0.644	0.599	0.572	0.783	0.72	0.99	0.741	0.758	0.531	0.555	0.465	0.818	0.558
LXF-289	0.919	0.812	0.9	0.933	0.912	0.994	1.1	1.13	1.03	0.924	0.914	0.956	0.891	0.92	0.778	0.78	0.843	0.827	0.812	0.786
HCC-78	0.344	0.368	0.338	0.352	0.336	0.779	0.872	0.897	0.866	0.934	0.663	0.528	0.692	0.604	0.702	0.388	0.53	0.393	0.493	0.417
HCC-366	0.792	0.428	0.403	0.337	0.045	0.424	0.417	0.39	0.287	0.197	1.14	1.05	1.05	0.965	0.993	0.426	0.269	0.28	0.121	0.0472
NCI-H2023	0.715	0.659	0.395	0.316	0.193	0.483	0.604	0.509	0.515	0.339	1	0.94	1.08	0.939	0.855	0.783	0.467	0.441	0.243	0.121
NCI-H1734	0.827	0.649	0.585	0.726	0.541	0.605	0.554	0.64	0.56	0.583	0.749	0.698	0.899	0.724	0.785	1.03	0.762	0.733	0.707	0.44
SK-LU-1	0.788	0.863	0.884	0.591	0.387	0.428	0.456	0.572	0.381	0.359	0.79	0.634	0.0636	0.539	0.656	0.918	0.687	0.783	0.496	0.305
NCI-H3122	0.283	0.281	0.32	0.356	0.331	0.7	0.635	0.711	0.627	0.644	1.04	1.03	0.981	0.923	0.963	1.11	1.01	0.978	1.13	0.908
CAL-12T	0.798	0.674	0.537	0.369	0.316	0.627	0.779	0.756	0.673	0.67	1.1	1.23	1.14	1.15	1.07	0.931	0.762	0.826	0.833	0.686
HARA	1.36	1.07	1.06	1.07	0.903	1.17	0.841	1.04	0.793	0.584	1.14	1.11	1.17	1.14	1.25	0.6	0.472	0.624	0.633	0.708
NCI-H1666	1.03	1.06	1.1	0.895	0.635	0.74	0.759	0.797	0.786	0.698	0.876	1.01	1.1	0.759	1.07	1.14	1.06	1.18	1.01	0.942
NCI-H460	1.5	0.818	0.588	0.359	0.186	–	0.463	0.411	0.344	0.375	1.17	1.34	1.34	1.13	0.656	1.02	0.619	0.528	0.111	0.0517
NCI-H2087	1.21	0.891	1	0.902	0.93	0.433	–	0.454	0.631	0.579	0.922	0.874	0.846	0.801	0.795	0.667	0.666	0.838	0.79	0.675
IA-LM	1.04	0.618	0.875	1.14	0.616	0.98	0.867	0.805	0.819	0.669	0.821	0.85	0.913	0.743	0.395	0.951	0.976	0.941	1.26	0.903
NCI-H1355	1.22	1.11	0.993	1.04	0.768	0.745	0.749	0.798	0.655	0.616	0.924	0.925	0.992	0.807	0.701	0.819	0.61	0.663	0.72	0.57
NCI-H838	0.96	0.721	0.688	0.875	0.757	0.801	0.718	0.62	0.4	0.202	1.08	1.06	1.04	0.641	0.406	0.755	0.688	0.697	0.69	0.542
